Here are results for 18 compounds from PubChem BioAssay AID248 (DTP/NCI, 2004).

Each structure is given as a SMILES string. Values joined by “and” are separate entries in the source; they are usually repeats but may differ in a detail not shown here. Identical values can stand only once. Inconclusive results and toxic doses are left out.

The subject of this assay is L1210 leukemia ip in BDF1 mice, survival T/C. Kind of assay: NCI In Vivo Anticancer Drug Screen. Data for tumor model L1210 Leukemia (intraperitoneal) in B6D2F1 (BDF1) mice. The conditions noted are these: endpoint: mean survival time, higher = longer survival. In outline:
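Tumor was transplanted into mice, which were then dosed with test compound or vehicle alone. Survival was recorded for each group, and the treated figure was expressed relative to the control figure.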

[1] abbreviates: dose: 100.0 mg/kg/injection, schedule: Q04DX003 (ip), vehicle: Klucel (hydroxypropylcellulose) (HPC).
[2] abbreviates: dose: 200.0 mg/kg/injection, schedule: Q04DX003 (ip), vehicle: Klucel (hydroxypropylcellulose) (HPC).
Setting [3] is: dose: 400.0 mg/kg/injection, schedule: Q04DX003 (ip), vehicle: Klucel (hydroxypropylcellulose) (HPC).
The mark [4] stands for this setting: dose: 100.0 mg/kg/injection, schedule: Q01DX009 (ip), vehicle: Klucel (hydroxypropylcellulose) (HPC).
Where [5] appears, read: dose: 200.0 mg/kg/injection, schedule: Q01DX009 (ip), vehicle: Klucel (hydroxypropylcellulose) (HPC).
Where [6] appears, read: dose: 400.0 mg/kg/injection, schedule: Q01DX009 (ip), vehicle: Klucel (hydroxypropylcellulose) (HPC).
Setting [7] is: dose: 50.0 mg/kg/injection, schedule: Q01DX001 (ip), vehicle: saline.
Setting [8] is: dose: 100.0 mg/kg/injection, schedule: Q01DX001 (ip), vehicle: saline.

Consider `O=C(SCO)c1ccccc1`, for which the T/C was 108 % of control (dose: 100.0 mg/kg/injection, schedule: Q01DX009 (sc), vehicle: olive oil, sesame oil, peanut oil); 107 % of control (dose: 100.0 mg/kg/injection, schedule: Q04DX003 (sc), vehicle: olive oil, sesame oil, peanut oil); 96 % of control (dose: 200.0 mg/kg/injection, schedule: Q01DX009 (sc), vehicle: olive oil, sesame oil, peanut oil); 96 % of control (dose: 200.0 mg/kg/injection, schedule: Q04DX003 (sc), vehicle: olive oil, sesame oil, peanut oil); 103 % of control (dose: 400.0 mg/kg/injection, schedule: Q01DX009 (sc), vehicle: olive oil, sesame oil, peanut oil); 93 % of control (dose: 400.0 mg/kg/injection, schedule: Q04DX003 (sc), vehicle: olive oil, sesame oil, peanut oil).
As for `O=C(CCl)N1CC2CCC(CC2)C1`, under setting [1], the T/C is 97 % of control.
`COCP(=O)(O)O`: the T/C is 96 % of control (dose: 100.0 mg/kg/injection, schedule: Q04DX002 (ip), vehicle: saline) and 100 % of control (dose: 200.0 mg/kg/injection, schedule: Q04DX002 (ip), vehicle: saline).
As to `CC(=O)OCC1OC(N2C(=O)/C(=C/c3ccncc3)SC2=S)C(OC(C)=O)C(OC(C)=O)C1OC(C)=O` (stereo unspecified), the T/C was 97 % of control (dose: 25.0 mg/kg/injection, schedule: Q01DX005 (ip), vehicle: other); 94 % of control (dose: 50.0 mg/kg/injection, schedule: Q01DX005 (ip), vehicle: other); 97 % of control (dose: 100.0 mg/kg/injection, schedule: Q01DX005 (ip), vehicle: other); 86 % of control (dose: 400.0 mg/kg/injection, schedule: Q01DX005 (ip), vehicle: other).
Take `NC(=O)C/C=C/CC(N)=O`: the T/C is 102 % of control under setting [1], 102 % of control under setting [2] and 102 % of control under setting [3].
With `NC(=S)NCC12CC3CC(CC(C3)C1)C2`, the T/C is 101 % of control and 114 % of control (dose: 3.0 mg/kg/injection, schedule: Q04DX002 (ip), vehicle: Klucel (hydroxypropylcellulose) (HPC)); 106 % of control and 120 % of control (dose: 6.0 mg/kg/injection, schedule: Q04DX002 (ip), vehicle: Klucel (hydroxypropylcellulose) (HPC)); 112 % of control (dose: 12.0 mg/kg/injection, schedule: Q04DX002 (ip), vehicle: Klucel (hydroxypropylcellulose) (HPC)); 105 % of control (dose: 12.5 mg/kg/injection, schedule: Q04DX002 (ip), vehicle: Klucel (hydroxypropylcellulose) (HPC)); 101 % of control (dose: 25.0 mg/kg/injection, schedule: Q04DX002 (ip), vehicle: Klucel (hydroxypropylcellulose) (HPC)).
Take `O=C1C=CC(=O)C=C1`: the T/C by setting is: (dose: 0.5 mg/kg/injection, schedule: Q01DX009 (ip), vehicle: saline) 97 % of control; (dose: 1.0 mg/kg/injection, schedule: Q01DX009 (ip), vehicle: saline) 97 % of control; (dose: 2.0 mg/kg/injection, schedule: Q01DX009 (ip), vehicle: saline) 94 % of control; (dose: 4.0 mg/kg/injection, schedule: Q01DX009 (ip), vehicle: saline) 94 % of control.
For the compound `CN(C)c1ccc(C(=O)C(O)c2ccccc2)cc1` (stereo unspecified), the T/C under setting [4] was 92 % of control; the T/C under setting [1] was 98 % of control; the T/C under setting [5] is 88 % of control; the T/C under setting [2] is 100 % of control; the T/C under setting [6] was 88 % of control; the T/C under setting [3] was 96 % of control.
On to `N=C(N=C(N)N)N(Cc1ccccc1)Cc1ccccc1`, for which the T/C reads like this: (dose: 6.25 mg/kg/injection, schedule: Q01DX009 (ip), vehicle: water) 103 % of control; (dose: 6.25 mg/kg/injection, schedule: Q04DX003 (ip), vehicle: water) 97 % of control; (dose: 12.5 mg/kg/injection, schedule: Q01DX001 (ip), vehicle: water) 107 % of control; (dose: 12.5 mg/kg/injection, schedule: Q01DX009 (ip), vehicle: water) 101 % of control; (dose: 12.5 mg/kg/injection, schedule: Q04DX003 (ip), vehicle: water) 103 % of control; (dose: 25.0 mg/kg/injection, schedule: Q01DX001 (ip), vehicle: water) 100 % of control. For the same compound, the T/C was 101 % of control (dose: 25.0 mg/kg/injection, schedule: Q01DX009 (ip), vehicle: water) and 96 % of control (dose: 25.0 mg/kg/injection, schedule: Q04DX003 (ip), vehicle: water).
Regarding `OCCNCCN1CCN(CCCN2c3ccccc3Sc3ccc(C(F)(F)F)cc32)CC1`, the T/C (dose: 6.25 mg/kg/injection, schedule: Q01DX009 (ip), vehicle: saline) was 111 % of control; the T/C (dose: 6.25 mg/kg/injection, schedule: Q04DX003 (ip), vehicle: saline) was 104 % of control; the T/C (dose: 12.5 mg/kg/injection, schedule: Q01DX009 (ip), vehicle: saline) is 105 % of control; the T/C (dose: 12.5 mg/kg/injection, schedule: Q04DX003 (ip), vehicle: saline) was 101 % of control; the T/C (dose: 25.0 mg/kg/injection, schedule: Q01DX009 (ip), vehicle: saline) is 88 % of control; the T/C (dose: 25.0 mg/kg/injection, schedule: Q04DX003 (ip), vehicle: saline) was 95 % of control.
Regarding `O=C(N/N=C/c1[nH]c(=S)[nH]c(=O)c1Cc1ccc(Cl)cc1)c1ccncc1`, the T/C (dose: 100.0 mg/kg/injection, schedule: Q01DX001 (ip), vehicle: Klucel (hydroxypropylcellulose) (HPC)) is 104 % of control; the T/C (dose: 200.0 mg/kg/injection, schedule: Q01DX001 (ip), vehicle: Klucel (hydroxypropylcellulose) (HPC)) is 101 % of control; the T/C (dose: 400.0 mg/kg/injection, schedule: Q01DX001 (ip), vehicle: Klucel (hydroxypropylcellulose) (HPC)) was 98 % of control.
For `CCCCCCN(CCCCCC)P(=O)(N1CC1C)N1CC1C` (stereo unspecified), the T/C under setting [7] is 104 % of control and the T/C under setting [8] is 101 % of control.
On to `COc1ccc(NC(=O)N(O)C2(C#N)CCCCC2)cc1`, for which the T/C (dose: 100.0 mg/kg/injection, schedule: Q01DX001 (ip), vehicle: carboxymethylcellulose (CMC)) was 98 % of control; the T/C (dose: 200.0 mg/kg/injection, schedule: Q01DX001 (ip), vehicle: carboxymethylcellulose (CMC)) was 94 % of control; the T/C (dose: 400.0 mg/kg/injection, schedule: Q01DX001 (ip), vehicle: carboxymethylcellulose (CMC)) is 88 % of control.
In the case of `CC(C)(C)c1cc(CO)cc(C(C)(C)C)c1O`, the T/C was 108 % of control under setting [4]; 91 % of control under setting [1]; 100 % of control under setting [5]; 92 % of control under setting [2]; 96 % of control under setting [6]; 105 % of control under setting [3].
Take `CCOC(=O)C1=NC(c2ccccc2)N(c2ccccc2)C1c1ccccc1` (stereo unspecified): the T/C under setting [7] was 100 % of control; the T/C under setting [8] is 100 % of control; the T/C (dose: 200.0 mg/kg/injection, schedule: Q01DX001 (ip), vehicle: saline) is 100 % of control; the T/C (dose: 400.0 mg/kg/injection, schedule: Q01DX001 (ip), vehicle: saline) is 103 % of control.
With `COc1cc(C=Nc2cc(Cl)c(O)c(Cl)c2)ccc1N(CCCl)CCCl`, the T/C (dose: 1.4 mg/kg/injection, schedule: Q01DX009 (ip), vehicle: carboxymethylcellulose (CMC)) is 113 % of control; the T/C (dose: 2.1 mg/kg/injection, schedule: Q01DX009 (ip), vehicle: carboxymethylcellulose (CMC)) was 105 % of control; the T/C (dose: 5.3 mg/kg/injection, schedule: Q01DX009 (ip), vehicle: carboxymethylcellulose (CMC)) was 112 % of control; the T/C (dose: 10.0 mg/kg/injection, schedule: Q01DX009 (ip), vehicle: carboxymethylcellulose (CMC)) is 171 % of control; the T/C (dose: 11.1 mg/kg/injection, schedule: Q01DX001 (ip), vehicle: carboxymethylcellulose (CMC)) was 122 % of control; the T/C (dose: 12.0 mg/kg/injection, schedule: Q01DX009 (ip), vehicle: carboxymethylcellulose (CMC)) is 110 % of control. The T/C runs as follows: (dose: 16.6 mg/kg/injection, schedule: Q01DX001 (ip), vehicle: carboxymethylcellulose (CMC)) 116 % of control and 123 % of control; (dose: 18.0 mg/kg/injection, schedule: Q01DX009 (ip), vehicle: carboxymethylcellulose (CMC)) 88 % of control; (dose: 25.0 mg/kg/injection, schedule: Q01DX001 (ip), vehicle: carboxymethylcellulose (CMC)) 122 % of control.
In the case of `O=C1C(=O)C(CCc2ccccc2)C(=O)/C1=C\c1ccccc1` (stereo unspecified), the T/C is 95 % of control (dose: 100.0 mg/kg/injection, schedule: Q04DX003 (ip), vehicle: saline with Tween-80) and 86 % of control (dose: 200.0 mg/kg/injection, schedule: Q04DX003 (ip), vehicle: saline with Tween-80).
As to `O=C(N/N=C/c1ccco1)c1cccnc1`, the T/C runs as follows: under setting [4], 97 % of control; under setting [5], 101 % of control.
